{"source": "patent US20220196635A1", "about": "“Fibrosis Assay” (Georgia Tech Research Corporation, priority 2020, published 2022)", "system": "NHLF cells and diseased IPF cells (primary human lung fibroblasts) in fibrin scaffold", "assay": "Microscale cell-mediated fibrinolysis assay (ATPS-printed fibroblast-laden fibrin scaffolds, brightfield pixel intensity)", "format": "cell-based", "conditions": "NHLF cells", "procedure": "A stock solution of DEX (20% w/w dextran T500; Sigma) was prepared in phosphate buffered saline (PBS) on a rocker overnight. A stock solution of PEG (6% w/w, 35 k MW; Sigma) was prepared in fully supplemented culture media with 10% deionized water to balance osmolality. Both stock solutions were passed through a 0.22 um sterilizing syringe filter before storage. PEG working solutions were stored for up to 2 weeks at 4° C. Thrombin (Human Alpha Thrombin; Enzyme Research Labs) was also added to the PEG solution at a concentration of 0.1 U/mL immediately preceding experiments. Fibrinogen-DEX solutions were prepared by diluting fibrinogen stock solution (human fibrinogen 3; Enzyme Research Labs) to a final concentration of 4 mg/mL in a sterile solution of 4% 10×DMEM, 15% DEX stock solution (to a final concentration of 3% dextran), and 50% cell suspension in growth media. For all experiments excluding cell concentration evaluation, the cell suspension was diluted for 1000 cells per microliter in the final fibrinogen-DEX solution.\nNormal human lung fibroblasts (NHLF lot #0000580583; […] Cells were passaged at 80-90% confluence and were sub-cultured in 1:3 ratios by trypsinization. When at the desired confluence, cells were washed with PBS and 0.05% trypsin solution was added to the flask. Cells were incubated for 2 min, diluted with fibroblast growth media, and then harvested and centrifuged (200× g, 5 min) in a conical tube. The supernatant was aspirated and the cell pellet was re-suspended in serum-free culture media. When used in fibrin degradation experiments, cells were re-suspended at 2× the final desired concentration (1000 cells/ul unless otherwise indicated). All experiments were conducted with cells at or below passage 12. In all experiments, media was changed every 48 hours and any media additives (plasminogen, TGF-β1, drugs, etc.) were included.\nWorking solutions of PEG with 0.1 U/mL of thrombin were warmed to 37° C. and pipetted into a 96-well plate. For production of droplets, fibrinogen-DEX solutions with cell suspension were maintained at 37° C. and pipetted directly into the PEG-thrombin media using either a manual pipette or a semi-automated 96-channel pipette (Viaflo-96; Integra). All assays utilized a volume of 1 μl unless otherwise noted. Following dispensing of the DEX phase, the plates were placed in an incubator at 37° C. for 30 min to allow the thrombin to enzymatically crosslink the fibrinogen into a fibrin matrix (FIG. 1A). The PEG-enriched media was then washed four times by removing, then replacing half of the media with PEG-free media. When applicable, the final media addition was supplemented with stimuli as detailed in Example 5 below. For the duration of each experiment, assay plates were imaged every 2 hours at 4× with an automated cell culture monitoring system (Incucyte S3; Essen Biosystems). After one day of culture, plasminogen (50 μg/mL) (Human Glu-Plasminogen; Enzyme Research Labs) was added as a 10× concentrated solution to each well in order to initiate assay degradation (FIG. 1B), unless otherwise noted for specific conditions. Fresh plasminogen was included with each subsequent media addition. Positive controls with active plasmin (1 U/ml) (Human Plasmin; Enzyme Research Labs) and negative controls without plasminogen were included in each experiment. As cells activated plasminogen, the fibrin scaffold progressively degraded as illustrated in FIG. 1C.\nAfter each experiment, brightfield images for every time point were downloaded in jpeg format from the automated cell culture monitoring system. Python's OpenCV library was implemented for the masking approach illustrated in FIG. 2A. First, a threshold was set at 50% of the maximum intensity (128 for 8-bit integer pixel values) in order to isolate the darker pixels of semi-opaque fibrin hydrogel from the background of the image. A closing morphological filter with a 25×25 kernel was then applied to each mask in order to remove noise. […]", "data": [{"substance": "TGF-β1: Human Recombinant TGF-β1 (Peprotech), pro-fibrotic, anti-fibrinolytic stimulus", "values": [{"measurement": "maximum slope of fibrin degradation", "setting": "higher concentrations of TGF-β1", "result": "no significant changes in slope"}, {"measurement": "50% degradation time / delay before fibrinolysis", "setting": "various concentrations of TGF-β1", "result": "longer time delays before fibrinolysis"}]}]}
